Results: paper PMC3144881, “Computational Reverse-Engineering of a Spider-Venom Derived Peptide Active Against Plasmodium falciparum SUB1” (PLoS ONE, 2011)

Columns and labels:
[1] = test system: P. falciparum 3D7 segmented schizonts (egress/invasion); conditions: cited from earlier work
Experimental: A synchronised culture composed of segmented schizontes of P. falciparum (3D7 clone) at 0.5% parasitemia and 1% hematocrit is performed in a 24 wells plate. An aliquot corresponding to 10% of the starting culture (T ) is diluted in a solution at 0.04% of glutaraldehyde in PBS (Dulbecco) and store at 4 C for further flow cytometry analysis.

[2] = test system: P. falciparum 3D7 segmented schizonts (egress/invasion); experiment: Merozoite egress/invasion assay, synchronized schizonts, flow cytometry (YOYO-1); format: cell-based, Plasmodium falciparum; conditions: 10 μM E64, 12 hr, 0.5% segmented schizonts, vs mock control
recombinant PfSUB1 [3] = molecular target: T1, recombinant PfSUB1 (Plasmodium falciparum, UniProt Q8I0V0); experiment: Enzymatic test: inhibition of recombinant PfSUB1, Dabsyl/Edans peptide substrate; format: biochemical; conditions: translated from the measured PfSUB1 Ki
T1 construct: Culture supernatant containing the secreted and active PvSUB1 or PfSUB1 recombinant enzymes was harvested; 6xHis (C); made in house; host or cells: Sf9 insect cells (baculovirus)

P. falciparum = conditions: intra-erythrocytic cycle; cited from earlier work
[4] = test system: P. falciparum clone 3D7 (asynchronous culture); conditions: read-out: EC50 on the asynchronous culture of P. falciparum intra-erythrocytic cycle; ± 6 (SEM); clone 3D7, 0,5% parasitemia, 1% hematocrit, 48 hours contact, 10 μM hypoxanthine, 37 °C
Experimental: Asexual cultures of reference clone 3D7 obtained from MR4 (www.MR4.org) was maintained in continuous cultures following the method of Trager an Jensen, except that the medium was composed of RPMI 1640 medium supplemented with 10% decomplemented human serum (AB+), hypoxanthine 100 [drawing 51] M, gentamycin […]. Parasites were incubated at 37 [drawing 52] C in an atmosphere composed of 5%O [drawing 53] , 5%CO [drawing 54] and 90%N [drawing 55] . […] EC [drawing 57] have been determined following nonlinear regression analysis using HN-NonLin V1.1 software (http://malaria.farch.net).

human epithelial cells = conditions: cited from earlier work
Excerpt: (§1) In addition to therapies based on small molecules such as chloroquine, artemisinins, quinine and atovaquone, the development of new classes of molecules based on proteins or peptidomimetics [8] is an active field of research. […] Choi et al. have isolated from the ven ...

fungi, bacteria = conditions: cited from earlier work
Excerpt: as §1

[5] = molecular target: T2, recombinant Plasmodium vivax SUB1 (PvSUB1) (Plasmodium vivax, UniProt E6Y8B9); design: method as in Bouillon et Giganti et al, in preparation; conditions: ± 1,7; substrate cleaved between the two aspartates, Dabsyl/Edans; ref Bouillon et Giganti et al, in preparation; read-out: apparent Km of PvSUB1 for its substrate; cited from earlier work
T2 construct: Culture supernatant containing the secreted and active PvSUB1 or PfSUB1 recombinant enzymes was harvested; 6xHis (C); made in house; host or cells: Sf9 insect cells (baculovirus)

recombinant PfSUB1 [6] = molecular target: T1, recombinant PfSUB1; design: method as in 2 sources, ref 22 = [22]; PMID 12764150; doi:10.1074/jbc.M303827200; 22 Jean L Hackett F Martin SR Blackman MJ 2003 Functional characterization of the propeptide of Plasmodium falciparum subtilisin-like protease-1. J Biol Chem 278 28572 9 12764150 10.1074/jbc.M30382720 ||| ref Bouillon et Giganti et al, in preparation; conditions: ± 3,4; substrate cleaved between D and N, Dabsyl/Edans; ref Bouillon et Giganti et al, in preparation; read-out: apparent Km of PfSUB1 for its substrate; cited from earlier work
[7] = molecular target: recombinant Plasmodium falciparum subtilisin-like serine protease SUB1 (PfSUB1), purified and active (Plasmodium falciparum) (UniProt Q8I0V0)
[8] = molecular target: recombinant Plasmodium falciparum subtilisin-like serine protease SUB1 (PfSUB1), purified and active (Plasmodium falciparum) (UniProt Q8I0V0); experiment: enzyme inhibition assay (Dabsyl/Edans quenched fluorescent peptide substrate); 13 ng purified PvSUB1 or PfSUB1, 25 uM substrate, 20 mM Tris pH 7.5, 25 mM CaCl2, 37 C; inhibitor at ten concentrations from 1 mM to 2 uM; fluorescence read every 3 min for 90 min; N = 3
[9] = molecular target: recombinant Plasmodium vivax SUB1 (PvSUB1), purified and active (Plasmodium vivax) (UniProt E6Y8B9); experiment: as above
[10] = molecular target: recombinant Plasmodium falciparum subtilisin-like serine protease SUB1 (PfSUB1), purified and active (Plasmodium falciparum) (UniProt Q8I0V0); remark: listed apart in the source

CC(C)C[C@H](NC(=O)[C@H]1O[C@@H]1C(=O)O)C(=O)NCCCCN=C(N)N (relative stereo) [E64, trans-Epoxysuccinyl-L-leucylamido(4-guanidino)butane]
block of egress of P. falciparum merozoites in vitro [1]: known to block the egress of P. falciparum merozoites in vitro | inhibition of newly formed trophozoites and equivalent segmented schizont accumulation [2]: 91.6%

CC[C@H](C)[C@@H]1NC(=O)CNC(=O)[C@@H](NC(=O)[C@H](C)N)CSSC[C@@H]2NC(=O)[C@@H]3CSSC[C@@H](C(=O)N[C@@H](CC(C)C)C(=O)N[C@H](C(=O)N[C@@H](CCC(N)=O)C(=O)N[C@H](C(=O)N[C@@H](CO)C(=O)O)C(C)C)C(C)C)NC(=O)[C@H](CCCCN)NC(=O)CNC(=O)[C@H](Cc4ccc(O)cc4)NC(=O)[C@H](CCCNC(=N)N)NC(=O)[C@H](CSSC[C@H](NC(=O)[C@H](CC(N)=O)NC(=O)[C@H](CC(=O)O)NC(=O)[C@H](Cc4c[nH]cn4)NC(=O)[C@H](CC(C)C)NC1=O)C(=O)N[C@@H](C(C)C)C(=O)N[C@@H](Cc1ccc(O)cc1)C(=O)N[C@@H](C(C)C)C(=O)N1CCC[C@H]1C(=O)N[C@@H](C)C(=O)N[C@@H](CCC(N)=O)C(=O)N[C@@H](CC(N)=O)C(=O)N1CCC[C@H]1C(=O)N3)NC(=O)[C@H](CCC(N)=O)NC(=O)[C@H](CC(C)C)NC(=O)CNC(=O)[C@H](CCCNC(=N)N)NC2=O [PcFK1]
free energy of binding translated from Ki value (recombinant PfSUB1 [3]): -6.37 kcal/mol | IC50, growth of P. falciparum (P. falciparum): low micromolar range | EC50 [4]: 116 µM | effect on growth or viability of human epithelial cells (human epithelial cells): nor do they affect the growth or viability of human epithelial cells | antifungal or antibacterial activity (fungi, bacteria): no antifungal or antibacterial activity

KLVGADDVSLA [PvSUB1 peptide substrate with fluorophore/quencher Dabsyl/Edans at each edge]
Km [5]: 19.7 µM

KLVSADNIDIS [PfSUB1 peptide substrate with fluorophore/quencher Dabsyl/Edans at each edge]
Km (recombinant PfSUB1 [6]): 30.2 µM

Psalmopeotoxin I (PcFK1), chemically synthesized with an extra serine at the C-term (from UniProt P0C201 52-86) (peptide)
EC50 of PcFK1 on the asynchronous culture of P. falciparum intra-erythrocytic cycle (clone 3D7, 48 hours with the drug) [7]: 116 µM | Ki [8]: 29.3 µM | Ki [9]: 36.3 µM | inhibition of newly formed trophozoites (merozoite egress/invasion, synchronized P. falciparum culture, 12 hr, flow cytometry) at 200 uM PcFK1, compared to the mock control [10]: 56.2%
